The numbers were not newly measured in paper PMC3266668 (Frontiers in Pharmacology, 2012), which cites them from elsewhere.

Data set [1] deals with patients after myocardial infarction. Conditions: ref Echt et al., [1991].
The subject of data set [2] is isolated left ventricular wedge preparations. Conditions: ref Lu et al., [2010].
The subject of data set [3] is isolated rabbit hearts. Conditions: ref Lu et al., [2010].

As to `O=C(NCC1CCCCN1)c1cc(OCC(F)(F)F)ccc1OCC(F)(F)F` (stereo not drawn) [flecainide], the “mortality in CAST treatment arms” value in data set [1] was “increased mortality due to arrhythmias”.

On to `CCN(CC)CC(=O)Nc1c(C)cccc1C` [lidocaine], for which, in data set [2], the QRS interval effect result is listed as “only slightly increased QRS duration” and the ventricular tachycardia result is given as “without inducing ventricular tachycardia”. For the same compound, in data set [3], the QRS interval effect result is “small increase in QRS duration” and the ventricular tachycardia result is reported as “did not induce ventricular tachycardia”.

Take `COc1ccc(C(=O)Nc2ccccc2CCC2CCCCN2C)cc1` (stereo not drawn) [encainide]: the “mortality in CAST treatment arms” value in data set [1] is “increased mortality due to arrhythmias”.
